We go through one compound from PMC3377608, “The IkappaB Kinase Family Phosphorylates the Parkinson’s Disease Kinase LRRK2 at Ser935 and Ser910 during Toll-Like Receptor Signaling” (PLoS ONE, 2012).

For this assay, the target named is T1, TAK1 (Homo sapiens, UniProt O43318).
T1 construct: gene MAP3K7
T1 sequence (O43318 1-303): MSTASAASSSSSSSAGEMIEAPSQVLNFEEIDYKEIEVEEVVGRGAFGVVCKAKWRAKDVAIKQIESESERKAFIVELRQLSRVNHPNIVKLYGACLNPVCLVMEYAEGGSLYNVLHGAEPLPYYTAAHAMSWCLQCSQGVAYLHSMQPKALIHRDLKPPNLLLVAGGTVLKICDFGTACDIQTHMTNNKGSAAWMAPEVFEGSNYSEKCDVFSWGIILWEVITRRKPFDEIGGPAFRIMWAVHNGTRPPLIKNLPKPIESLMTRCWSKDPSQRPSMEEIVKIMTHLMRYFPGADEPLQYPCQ
T1 sequence (Q15750 437-504 partner): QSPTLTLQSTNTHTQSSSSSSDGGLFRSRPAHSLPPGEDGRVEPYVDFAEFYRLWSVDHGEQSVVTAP
In words: in vitro kinase inhibition (IC50); selectivity profiled by KiNativ, Ambit and radioactive filter binding panels. In kind it is biochemical.

In general, IC50 refers to the concentration at which inhibition is half-maximal. Turning to `CCN1CCN(Cc2ccc(NC(=O)c3ccc(C)c(Oc4ccnc5[nH]ccc45)c3)cc2C(F)(F)F)CC1` [NG25], the IC50 was found to be 4 nM.
